Data on 3 compounds can be found in patent US20230140290A1, “SALICYLAMIDE DERIVATIVES AND RELATED METHODS OF MAKING” (THE BOARD OF REGENTS OF THE UNIVERSITY OF TEXAS SY, priority 2020, published 2023).

Like-named read-outs stand apart in the source and are kept apart here.

The test system of data set [1] is HAdV5-GFP. Nature of the data set: Plaque assay (inhibition of HAdV plaque formation). The class given is cell-based, HAdV-5. The conditions noted are these: for Selectivity index (SI): ratio of CC50 to IC50 in plaque assay; for inhibition at 10 µM: read-out: Plaque Assay (%) Inhibition (10 μM). Put shortly: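 Cells at 80-90% confluency infected with HAdV5-GFP at 0.06 vp/cell, rocked 2 h at 37° C, then washed with PBS. Compounds tested at 10 μM and in dose-response from 10 to 0.3 μM, included in the post-infection mixture.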

In data set [2] the test system is HAdV5-GFP. Nature of the data set: Entry assay (HAdV5-mediated GFP expression). The conditions noted are these: for (%) Inhibition Entry Assay (50 μM): 48 h; for inhibition at 50 µM: A549, 48 h, read-out: (%) Inhibition Entry Assay (50 μM). The class given is cell-based, HAdV-5. As to the method: Entry Assay. The anti-HAdV activity was measured in an entry assay using human A549 epithelial cells (3×10^5 cells/well in coming black wall, clear bottom 96-well plates) infected with HAdV5-GFP (2000 vp/cell) in the presence 50 μM of the candidates and in a dose-response assay. A standard infection curve was generated in parallel by infecting cells in the absence of compounds using serial 2-fold dilutions of virus. All reactions were done in triplicate. Cells, virus, and drugs were incubated for 48 h at 37° C. and 5% CO2.

Data set [3] is described as follows: Maximum tolerated dose (MTD). The conditions noted are these: immunosuppressed Syrian hamster, intraperitoneal. On the procedure:
Maximum tolerated dose (MTD). […] Before dosing, compounds were diluted in 10% DMSO, 10% Cremophor EL and 80% sodium chloride physiological solution. […] At day 14 animals were sacrificed with a lethal dose of thiopental. All inoculations were done via intraperitoneal.

The next data set has as its system HAdV5. Nature of the data set: HAdV-mediated endosome disruption (α-sarcin co-delivery assay). The class given is cell-based, HAdV-5. The conditions noted are these: FIG. 11; A549, 5 μM, independent of virus concentration.
For data set [4], the system named is HAdV5-GFP. The conditions noted are these: read-out: IC50, inhibition of HAdV infection; Marrugal-Lorenzo et al. 2019; cited from earlier work.
Another data set has as its system A549 cells. Briefly: Cytotoxicity assay (AlamarBlue). The conditions noted are these: read-out: CC50 (μM), cytotoxic concentration 50%; A549 cell line, 48 h. On the procedure: (§1) Cytotoxicity Assay. The cytotoxicity of the compounds was analyzed by commercial kit AlamarBlue® (Invitrogen, Ref. DAL1025). A549 cells at a density of 5×10^3 cells per well in 96-well plates were seeded. […] Cells were then incubated at 37° C. for 48 h following the kit protocol. The cytotoxic concentration 50 (CC50) value was obtained using the statistical package GraphPad Prism. This assay was performed in duplicate.

The test system of data set [5] is wild-type HAdV5. Briefly: Nuclear-associated HAdV genomes (real-time PCR). It is filed as cell-based, HAdV-5. The conditions noted are these: FIG. 5A; 45 min post-infection; 10-fold plaque IC50. On the procedure:
(§2) Nuclear-Associated HAdV Genomes. The nuclear delivery of HAdV genomes was assessed by real-time PCR following nuclear isolation from infected cells. […] Forty-five minutes after infection, A549 cells were trypsinized and collected and then washed twice with PBS. Then, cytoplasmic and nuclear fractions were separated using a hypotonic buffer solution and NP-40 detergent. The cell pellet was resuspended in 500 μL of 1×hypotonic buffer (20 mM Tris-HCl pH 7.4, 10 mM NaCl, 3 mM MgCl2) and incubated for 15 min at 4° C. Then, 25 μL of NP-40 was added and the samples were vortexed. The homogenates were centrifuged for 10 min at 835 g at 4° C. Following the removal of the cytoplasmic fraction (supernatant), HAdV DNA was isolated from the nuclear fraction (pellet) and from the cytoplasmic fraction using the QIAamp DNA Mini Kit (QIAGEN, Valencia, Calif.).
as §2, with “E.Z.N.A.® Tissue” for “QIAamp”, “DNA” for “DNA Mini”, “(Omega Bio-tek, Norcross, Ga.).” for “(QIAGEN, Valencia, Calif.).”
(Real-time PCR tracks product formation cycle by cycle.)

Data set [6] relates to wild-type HAdV5. Nature of the data set: HAdV DNA quantification by real-time PCR (DNA replication). The class given is cell-based, HAdV-5. The conditions noted are these: FIG. 6A; 24 h; 10-fold plaque IC50. On the procedure:
DNA Quantification by Real-Time PCR. […] Infected cells were incubated 24 h at 37° C. in 500 μL of complete DMEM containing 25 μM of either compounds or the same volume of DMSO (positive control). All samples were done in duplicate. After 24 h of incubation at 37° C., DNA was purified from the cell lysate with the QIAamp DNA Mini Kit (QIAGEN, Valencia, Calif.) following the manufacturer's instructions. TaqMan primers and probes for a common region of the HAdV5 were designed with the GenScript Real-Time PCR (TaqMan) Primer Design software (GenScript). […] Real-time PCR mixtures consisted of 9.5 μL of the purified DNA, AQ1 and AQ2 at a concentration of 200 nM each and Probe at a concentration of 50 nM in a total volume of 25 μL. The PCR cycling protocol was 95° C. for 3 min followed by 40 cycles of 95° C. for 10 s and 60° C. for 30 s. Human glyceraldehyde-3-phosphate dehydrogenase (GAPDH) gene was used as internal control. Oligonucleotides sequences for GAPDH and conditions were those previously reported by Henke-Gendo et al. (2012).
For quantification, gene fragments from hexon, and GAPDH were cloned into the pGEM-T Easy vector (Promega) and known concentrations of template were used to generate a standard curve in parallel for each experiment. All assays were performed in thermal cycler LightCycler® 96 System (Roche).
(§3) HAdV DNA Quantification by Real-Time PCR. […] All samples were done in duplicate. After 24 h of incubation at 37° C., DNA was purified from the cell lysate with the E.Z.N.A.® Tissue DNA Kit (Omega Bio-tek, Norcross, Ga.) following the manufacturer's instructions. TaqMan primers and probes for a common region of the HAdV5 were designed with the GenScript Real-Time PCR (TaqMan) Primer Design software (GenScript). […] Real-time PCR mixtures consisted of 9.5 μL of the purified DNA, AQ1 and AQ2 at a concentration of 200 nM each and Probe at a concentration of 50 nM in a total volume of 25 μL. The PCR cycling protocol was 95° C. for 3 min followed by 40 cycles of 95° C. for 10 s and 60° C. for 30 s. Human glyceraldehyde-3-phosphate dehydrogenase (GAPDH) gene was used as internal control. Oligonucleotides sequences for GAPDH and conditions were those previously reported by Henke-Gendo et al. (2012).
as §3, with “DNA” for “HAdV DNA”

Another data set relates to HCMV. Briefly: HCMV DNA quantification by real-time PCR. The class given is cell-based, human cytomegalovirus. The note with it: HFF cells, 72 h, 10-fold plaque IC50 (niclosamide 5 μM). As to the method: HCMV DNA Quantification by Real-Time PCR. […] Then, cells were incubated for 72 h at 37° C. and 5% CO2 and HCMV DNA was purified from the cell lysate using the QIAamp DNA Mini Kit (Qiagen, Valencia, Calif.) following the manufacturer's instructions. Real-time PCR primers, mixtures and protocols were the same as previously reported (Sanchez-Cespedes et al., J. Med. Chem. 2016, 59, 5432-5448).

A short description of data set [7]: Cytotoxicity assay (AlamarBlue). The conditions noted are these: human, A549 cells. On the procedure: as §1
The test system of data set [8] is HAdV5-GFP. Nature of the data set: Time of addition assay. It is filed as cell-based, HAdV-5. The note with it: FIG. 7; 10-fold plaque IC50. As to the method: Time of Addition Curve Study. […] Parallel samples of HAdV-5 were incubated with or without the selected derivatives on ice for 1 h. […] The derivatives were added at the indicated time points before or during this incubation. After a total of 2 h at 37° C., cells were incubated for an additional 48 h at 37° C. and 5% CO2 before being analyzed for GFP expression using the Typhoon 9410 imager (GE Healthcare Life Sciences) as above.
Time of Addition Assay. […] Parallel samples of HAdV-5 were incubated with or without the selected derivatives on ice for 1 h. […] The derivatives were added at the indicated time points before or during this incubation. After a total of 2 h at 37° C., cells were incubated for an additional 48 h at 37° C. and 5% CO2 before being analyzed for GFP expression using the Typhoon 9410 imager (GE Healthcare Life Sciences) as above.
Time of Addition Assay. […] Parallel samples of HAdV-5 were incubated with or without the selected compounds on ice for 1 h. […] Compounds 153 and 161 were added at the indicated time points before or during this incubation. After a total of 2 h at 37° C., cells were incubated for an additional 48 h at 37° C. and 5% CO2 before being analyzed for GFP expression using the Typhoon 9410 imager (GE Healthcare Life Sciences) as above.

Setting [9] is: read-out: Plaque Assay IC50 (μM), HAdV5-GFP, low MOI, 293β5 cell line.
The mark [10] stands for this setting: A549, read-out: IC50 Entry Assay (μM), HAdV5-GFP, high MOI, A549 cell line.

In general, IC50 refers to the point on the concentration scale where inhibition reaches its midpoint. As to `O=C(Nc1ccc([N+](=O)[O-])cc1Cl)c1cc(Cl)ccc1O` [Compound 6, niclosamide, reference compound], the “Plaque Assay (%) Inhibition (10 μM)” value in the data set with HAdV5-GFP [1] (HAdV5-GFP, 10 μM, low MOI, 293β5 cell line) was determined as 100 ± 0%. The IC50 in the data set with HAdV5-GFP [1] (HAdV5-GFP, low MOI, 293β5 cell line, read-out: Plaque Assay IC50) was 0.6 µM; in the data set on HAdV5-GFP [2] (HAdV5-GFP, high MOI, A549 cell line, read-out: IC50 Entry Assay) it was 1.22 ± 0.44 µM; with HAdV5-GFP [4], 0.6 µM. The “(%) Inhibition Entry Assay (50 μM)” value in the data set on HAdV5-GFP [2] (HAdV5-GFP, high MOI, A549 cell line) was determined as 100.0 ± 0.0%; with HAdV5-GFP [2] (HAdV5-GFP, high MOI, A549 cell line, listed as 73, 50 µM) it was 100 ± 0%. The “doses showing high toxicity” value in data set [3] is no less than 5 mg/kg. Besides, the “rate of HPG incorporation compared to a control without α-sarcin” value in the data set with HAdV5 is “under 50%”.

One may read the inhibition as how much of the control response was suppressed. In the case of `O=C(Nc1ccc(NC2CCCC2)cc1Cl)c1cc(Cl)ccc1O` [Compound 78, 5-Chloro-N-(2-chloro-4-(cyclopentylamino)phenyl)-2-hydroxybenzamide], the “Selectivity index (SI)” value in the data set with HAdV5-GFP [1] was 185.8. Besides, the inhibition at 10 µM in the data set on HAdV5-GFP [1] worked out at 100%. The results for the half-inhibitory concentration (IC50) with HAdV5-GFP [1] (setting [9]) and in the data set on HAdV5-GFP [2] (setting [10]) were 0.5 ± 0.1 µM and greater than 50 µM, respectively. The CC50 in the data set on A549 cells turned out to be 92.9 ± 7.1 µM. Besides, in the data set on HAdV5-GFP [2], the inhibition at 50 µM was 27.5 ± 3.8%. The “amount of nuclear-associated HAdV genomes versus DMSO” value in the data set with wild-type HAdV5 [5] is listed as “no significant differences”. For the same compound, the “inhibition of HAdV-5 DNA replication (qPCR)” value in the data set with wild-type HAdV5 [6] is given as “moderate inhibition”. Moreover, the “decrease of total HCMV DNA compared to the DMSO control” value with HCMV was “no significant inhibition”.

Consider `CC(C)(C)OC(=O)N1CCC(CNc2ccc(NC(=O)c3cc(Cl)ccc3O)c(Cl)c2)CC1` [Compound 126, tert-Butyl 4-(((3-chloro-4-(5-chloro-2-hydroxybenzamido)phenyl)amino)methyl)piperidine-1-carboxylate], for which, in the data set on HAdV5-GFP [1], the “Selectivity index (SI)” value is listed as 102.2 and the inhibition at 10 µM is 97.8 ± 1.4%. The IC50 in the data set with HAdV5-GFP [1] (setting [9]) came to 0.93 µM. For the same compound, in data set [7], the CC50 at 48 h stood at 95 µM. Also, the inhibition at 50 µM in the data set with HAdV5-GFP [2] stood at 67.6%. The IC50 in the data set with HAdV5-GFP [2] (setting [10]) was less than 3.13 µM. Moreover, the “anti-HAdV activity when added between 10 and 20 min p.i.” value in the data set with HAdV5-GFP [8] is recorded as “loses its anti-HAdV activity”. In the data set on wild-type HAdV5 [5], the “amount of nuclear-associated HAdV genomes versus DMSO” value was “partially inhibited”.
